Measurements taken from article PMC9272661 (Antiviral Research, 2022).

Assays:
SARS-CoV-2 3CLpro [1] = target: T1, SARS-CoV-2 3CLpro (Severe acute respiratory syndrome coronavirus 2, UniProt P0DTD1); experiment: Enzyme kinetics, Lineweaver-Burk plots; assay type: biochemical; settings: 200 nM 3CLpro, inhibitor 5 μM or 10 μM
SARS-CoV-2 3CLpro [2] = target: T1, SARS-CoV-2 3CLpro; experiment: Inhibition of cleavage of TriPro substrate protein; assay type: biochemical; settings: 0.8 μM 3CLpro, 1 h preincubation, SDS-PAGE
SARS-CoV-2 3CLpro [3] = target: T1, SARS-CoV-2 3CLpro; experiment: Surface plasmon resonance binding to immobilized 3CLpro; settings: 0.164-100 μM, 25 °C, n = 3
SARS-CoV-2 3CLpro [4] = target: T1, SARS-CoV-2 3CLpro; experiment: FRET-based enzymatic assay of 3CLpro; assay type: biochemical; settings: at 50 μM concentration

| Structure (SMILES) | Inhibition Type (SARS-CoV-2 3CLpro [1]) | Inhibition of cleavage of TriPro substrate protein (SARS-CoV-2 3CLpro [2]) | KD (SPR, steady-state affinity model) (SARS-CoV-2 3CLpro [3]) | Inhibitory activity against SARS-CoV-2 3CLpro (SARS-CoV-2 3CLpro [4]) |
| --- | --- | --- | --- | --- |
| Cl.NCCOc1ccc(Cl)cc1C(=O)NCC(=O)Nc1ccc([N+](=O)[O-])cc1Cl [JMX0286, 2-(2-Aminoethoxy)-5-chloro-N-(2-((2-chloro-4-nitrophenyl)amino)-2-oxoethyl)benzamide hydrochloride] | Non-competitive | inhibited the cleavage of the TriPro substrate protein in a dose dependent manner |  |  |
| CC(C)(C)OC(=O)NCCOc1ccc(Cl)cc1C(=O)NCC(=O)Nc1ccc([N+](=O)[O-])cc1Cl [JMX0301, Tert-Butyl (2-(4-chloro-2-((2-((2-chloro-4-nitrophenyl)amino)-2-oxoethyl)carbamoyl)phenoxy)ethyl)carbamate] | Non-competitive | inhibited the cleavage of the TriPro substrate protein in a dose dependent manner | did not show binding |  |
| O=C(Nc1ccc([N+](=O)[O-])cc1Cl)c1cc(Cl)ccc1O [niclosamide] |  |  |  | does not inhibit |
